According to ChEMBL document CHEMBL3871287, “Discovery of SMP-304, a novel benzylpiperidine derivative with serotonin transporter inhibitory activity and 5-HT1A weak partial agonistic activity showing the antidepressant-like effect” (Bioorg Med Chem, 2017):
pIC50, pKi: −log10 of the molar value. Calls of active or inactive are those of the source. No cut-off for these calls is given here.

Columns and labels:
[1] = target: T1, Sodium-dependent serotonin transporter (Homo sapiens, UniProt P31645); experiment: Inhibition of human SERT expressed in CHO cell membranes assessed as reduction in [3H]serotonin uptake preincubated for 10 mins followed by [3H]serotonin addition measured after 20 mins by liquid scintillation counting method; type: cell-based
[2] = target: T2, 5-hydroxytryptamine receptor 1A (Homo sapiens, UniProt P08908); experiment: Displacement of [3H]-8-OH-DPAT from human 5-HT1A receptor expressed in CHOK1 cells after 30 mins by liquid scintillation counting analysis; type: cell-based, CHO-K1
T2 sequence (P08908 whole entry): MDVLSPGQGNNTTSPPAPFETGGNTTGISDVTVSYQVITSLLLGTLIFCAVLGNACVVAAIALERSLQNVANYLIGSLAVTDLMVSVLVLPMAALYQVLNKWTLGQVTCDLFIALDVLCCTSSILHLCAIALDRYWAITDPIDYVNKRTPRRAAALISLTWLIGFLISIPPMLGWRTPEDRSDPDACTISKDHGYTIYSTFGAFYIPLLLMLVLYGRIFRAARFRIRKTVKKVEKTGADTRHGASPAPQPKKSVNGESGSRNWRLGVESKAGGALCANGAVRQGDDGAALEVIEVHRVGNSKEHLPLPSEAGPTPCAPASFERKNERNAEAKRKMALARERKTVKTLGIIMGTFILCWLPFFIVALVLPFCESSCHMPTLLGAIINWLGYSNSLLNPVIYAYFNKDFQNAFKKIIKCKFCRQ

HEK293 = experiment: Selectivity ratio of Ki for human SERT expressed in HEK293 cell membranes to Ki for human 5-HT1A expressed in CHO-K1 cell membranes; type: cell-based
[3] = target: T1, Sodium-dependent serotonin transporter; experiment: Displacement of [3H]citalopram from human SERT expressed in HEK293 cell membranes after 1 hr by liquid scintillation counting method; type: cell-based
Rattus norvegicus [4] = experiment: Toxicity in Wistar rat assessed as increase in spontaneous locomotor activity at 3 and 10 mg/kg, po administered 26 and 2 hrs prior to testing measured for 30 mins; type: organism-based; settings: in vivo, 0.5 h
Cytochrome P450 2D6 = Cytochrome P450 2D6 (Homo sapiens, UniProt P10635); experiment: Inhibition of CYP2D6 in human liver microsomes assessed as reduction in formation of 1'-hydroxy-bufuralol from bufuralol preincubated with enzyme followed by substrate and beta-NADPH addition measured after 10 mins by LC-MS/MS analysis; type: ADME
[5] = Antidepressant-like activity in Wistar rat assessed as decrease in immobility time at 1 and 3 mg/kg, po administered 30 mins post start of training session for 2 days measured 2 hrs post last dose by forced swimming test; type: functional, organism-based
Rattus norvegicus [6] = experiment: Toxicity in Wistar rat assessed as increase in spontaneous locomotor activity at 1 and 3 mg/kg, po administered 26 and 2 hrs prior to testing measured for 30 mins; type: organism-based; settings: in vivo
[7] = Drug uptake in Wistar rat brain at 1 mg/kg, po administered 26 and 2 hrs prior to testing by HPLC/MS analysis; type: ADME, organism-based; settings: in vivo
[8] = Drug uptake in Wistar rat brain at 3 mg/kg, po administered 26 and 2 hrs prior to testing by HPLC/MS analysis; type: ADME, organism-based; settings: in vivo

Cytochrome P450 2D6, sequence (P10635 whole entry): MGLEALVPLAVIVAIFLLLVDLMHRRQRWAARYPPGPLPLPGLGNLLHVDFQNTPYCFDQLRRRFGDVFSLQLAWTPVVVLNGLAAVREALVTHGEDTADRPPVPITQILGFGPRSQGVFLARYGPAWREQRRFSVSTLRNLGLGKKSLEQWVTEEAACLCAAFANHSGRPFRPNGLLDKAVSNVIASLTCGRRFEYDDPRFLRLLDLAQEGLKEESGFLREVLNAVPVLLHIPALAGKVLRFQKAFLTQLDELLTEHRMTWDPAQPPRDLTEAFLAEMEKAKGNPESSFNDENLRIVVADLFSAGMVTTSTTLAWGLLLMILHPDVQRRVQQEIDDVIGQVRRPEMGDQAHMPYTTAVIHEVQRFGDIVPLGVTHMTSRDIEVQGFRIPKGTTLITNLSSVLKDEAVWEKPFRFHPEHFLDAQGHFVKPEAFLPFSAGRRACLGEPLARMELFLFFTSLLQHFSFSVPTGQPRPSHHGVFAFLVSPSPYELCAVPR
T1 sequence (P31645 whole entry): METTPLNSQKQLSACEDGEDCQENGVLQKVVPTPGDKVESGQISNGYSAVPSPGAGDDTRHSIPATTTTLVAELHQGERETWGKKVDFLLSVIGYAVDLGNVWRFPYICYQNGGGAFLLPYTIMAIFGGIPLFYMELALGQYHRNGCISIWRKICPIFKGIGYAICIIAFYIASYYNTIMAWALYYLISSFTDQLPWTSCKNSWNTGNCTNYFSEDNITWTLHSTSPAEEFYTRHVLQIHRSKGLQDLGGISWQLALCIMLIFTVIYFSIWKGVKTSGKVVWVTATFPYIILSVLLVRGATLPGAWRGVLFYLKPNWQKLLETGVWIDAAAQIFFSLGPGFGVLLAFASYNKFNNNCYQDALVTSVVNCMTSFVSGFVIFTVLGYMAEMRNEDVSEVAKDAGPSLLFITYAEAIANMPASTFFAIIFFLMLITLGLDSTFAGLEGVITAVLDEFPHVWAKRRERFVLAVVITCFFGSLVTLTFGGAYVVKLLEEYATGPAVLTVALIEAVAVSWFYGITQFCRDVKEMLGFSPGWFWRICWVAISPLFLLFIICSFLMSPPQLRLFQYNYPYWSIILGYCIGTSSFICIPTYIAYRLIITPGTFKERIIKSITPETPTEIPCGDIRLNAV

| Structure (SMILES) | pKi [1] | pKi [2] | further results |
| --- | --- | --- | --- |
| COc1ccc(Br)c(CC2CCN(CCc3ccc(OC)c(OC)c3)CC2)c1 | 7.57 | 8.81 | – |
| COc1ccc(Br)c(CC2CCN(CCc3ccc4ccccc4c3)CC2)c1 | 7.59 | 9.05 | – |
| COc1ccc(Br)c(CC2CCN(CCc3ccccc3)CC2)c1 | 7.18 | 8.57 | Ratio Ki (HEK293): > 20; pKi [3]: 7.18 |
| COc1ccc(Cl)c(CC2CCN(CCc3ccccc3)CC2)c1 | – | 8.64 | pKi [3]: 6.99 |
| Fc1ccc([C@@H]2CCNC[C@H]2COc2ccc3c(c2)OCO3)cc1 [PAROXETINE] | – | – | Activity (Rattus norvegicus [4]): Non-Toxic |
| COc1ccc(Br)c(CC2CCN(CCc3ccccc3OC)CC2)c1 | 7.42 | 8.52 | – |
| COc1ccc(Br)c(CC2CCN(CCc3cccc4ccccc34)CC2)c1 | 7.41 | 8.32 | – |
| COc1ccc(CCN2CCC(Cc3cc(OC)ccc3Br)CC2)c(Cl)c1 | 7.52 | 8.95 | – |
| COc1ccc(Br)c(CC2CCN(C3CCN(c4ccc(OC)c(OC)c4)CC3)CC2)c1 | – | – | pIC50 [2]: > 8.00 |
| COc1ccc(F)c(CC2CCN(C3CCN(c4ccc(OC)c(OC)c4)CC3)CC2)c1 | – | – | pKi [3]: > 7.00 |
| COc1ccc(CCN2CCC(Cc3cc(OC)ccc3Br)CC2)cc1 | 7.43 | 9.09 | – |
| CC(C)Oc1ccc(Br)c(CC2CCN(CCc3cc4c(cc3Cl)OCCO4)CC2)c1 | 7.86 | 7.80 | pIC50 (Cytochrome P450 2D6): 5.82 |
| COc1ccc(Br)c(CC2CCN(CCc3cc(OC)c(OC)cc3Cl)CC2)c1 | 7.55 | 8.71 | – |
| COc1ccc(Br)c(CC2CCN(CCc3ccc(Cl)cc3)CC2)c1 | 7.34 | 8.87 | – |
| COc1ccc(Br)c(CC2CCN(CCc3cccc(Cl)c3)CC2)c1 | 7.37 | 8.53 | – |
| CCOc1ccc(Br)c(CC2CCN(CCc3cc4c(cc3Cl)OCCO4)CC2)c1 | 7.73 | 7.63 | pIC50 (Cytochrome P450 2D6): 5.85 |
| COc1ccc(Br)c(CC2CCN(CCc3cccc4c3OCCO4)CC2)c1 | 7.59 | 8.67 | – |
| COc1cccc(CCN2CCC(Cc3cc(OC)ccc3Br)CC2)c1 | 7.43 | 9.09 | – |
| COCCOc1ccc(Br)c(CC2CCN(CCc3cc4c(cc3Cl)OCCO4)CC2)c1.Cl | 7.49 | – | pIC50 [1]: 6.51; pIC50 (Cytochrome P450 2D6): 5.52; Activity [5]: Active; Activity (Rattus norvegicus [6]): Non-Toxic; Drug uptake [7]: 6.74 nmol/kg; Drug uptake [8]: 30.3 nmol/kg |
| COc1ccc(Br)c(CC2CCN(CCc3cc4c(cc3Cl)OCCO4)CC2)c1 | 7.91 | 8.19 | Ratio Ki (HEK293): < 2; pIC50 (Cytochrome P450 2D6): > 6.40 |
| COc1ccc(Br)c(CC2CCN(CCc3ccc(C)cc3)CC2)c1 | 7.19 | 8.85 | – |
| COc1ccc(Br)c(CC2CCN(CCc3ccc(F)cc3)CC2)c1 | 7.29 | 8.98 | – |
| COc1ccc(Br)c(CC2CCN(CCc3ccc(OC)c(Cl)c3)CC2)c1 | 7.72 | 8.98 | – |
| COc1cccc(CC2CCN(CCc3ccccc3)CC2)c1 | – | 7.53 | pKi [3]: 6.67 |
| COc1ccc(Br)c(CC2CCN(CCc3ccc4c(c3)OCCO4)CC2)c1 | 7.85 | 9.44 | – |
| COc1ccc(Br)c(CC2CCN(CCc3ccccc3Cl)CC2)c1 | 7.20 | 8.39 | – |
| COc1ccc(F)c(CC2CCN(CCc3ccccc3)CC2)c1 | – | 8.22 | pKi [3]: 6.56 |
